Experimental data published in US20060246117A1, “Animal husbandry method for administering a vitamin E derivative and formulation” (ADISSEO FRANCE S.A.S., priority 2003, published 2006).
Blank lines part the entries; values can stand above or below the compound they belong to.

Legend:
CaCo-2 = test: Absorption of Tol and Tac by CaCo-2 cells in M20 medium, one hour at 37° C., non-ethoxylated versus ethoxylated emulsifiers (Example 3); assay type: in vitro ADME
Experimental: Absorption assays are carried out, using the same cell line as that described above, by incubating the cells for 3 hours in a physiological medium which is similar to the intestinal medium and which contains cholesterol ester hydrolase (CEH), the pancreatic enzyme which hydrolyzes the Tac into vitamin E in the animal, and sodium taurocholate, which represents the bile salts. This medium comes in the form of an oil-in-water emulsion, i.e. in the form of micelles, and is commercially identified under the reference M20. The Tac, and, where appropriate, the emulsifier being tested, are placed in this medium. The concentration, in vitamin E equivalent, which is introduced into each well in the form of Tac is 156 μM.
The general experimental conditions of the protocol described in Example 2, 2.1) are identical apart from the fact that the area of the wells and the concentration of Tac introduced into the M20 medium differ. The area of the wells is 6.5 cm^2 and the concentration of Tac is 23.7 μM/cm^2.
Four experiments are carried out, with each being repeated three times, using a protocol which comprises one hour of incubation at 37° C., as follows: • 1) M20 on its own, at the rate of 2 mM; the Tac is therefore on its own without emulsifier; • 2) M20+SML (sorbitan monolaurate) emulsifier • 3) M20+SMP (sorbitan monopalmitate) emulsifier • 4) M20+ESML (ethoxylated sorbitan monolaurate)
In the case of each of the assays 2), 3) and 4), the ratio by weight of the added emulsifier to the Tac (in vitamin E equivalent) is 1:6.9.
Four experiments are carried out, with each being repeated three times, using a protocol which comprises one hour of incubation at 37° C., as follows: • 1) M20 on its own; the Tac is therefore on its own without emulsifier; • 2) M20+SML (sorbitan monolaurate) emulsifier • 3) M20+SMP (sorbitan monopalmitate) emulsifier • 4) M20+MOSE (ethoxylated sorbitan monooleate)

[1] = Release of Tac from its silica support (Example 4); assay type: physicochemical; conditions: 2.5 hours, 38° C., Tac on silica
Experimental: The present example tests the effect of an emulsifier according to the invention, i.e. SMO (sorbitan monooleate), on the release of Tac which is attached to silica. To this end, use is made of Tac on a silica support, in a ratio by weight of 1:1, for the assay without emulsifier, and of Tac+emulsifier (SMO) on silica in a ratio by weight of 50:5:45.
10 g of Tac (where appropriate +SMO) on the above silica (that is a final concentration of Tac of 10 mM) are incubated for 2.5 hours, while stirring and at 38° C., under different pH conditions in the following solutions:
either 35 mM phosphate, pH 6.5, 0.15 mM NaCl
or 35 mM HCl/glycine, pH 2.5

[2] = tested on: cholesterol ester hydrolase (pancreatin); test: Combined release of Tac from silica support and hydrolysis of the released Tac to Tol (Example 6); assay type: in vitro ADME
Experimental: The present example tests the effect of an emulsifier according to the invention, i.e. SMO (sorbitan monooleate). For this purpose, use is made of Tac on a silica support, in a ratio by weight of 1:1, for the assay without emulsifier, and of Tac+emulsifier (SMO) on silica, in a ratio by weight of 50:5:45.
8 mg of Tac (where appropriate +SMO) on the above silica (that is a final concentration of Tac of 16.9 μM) are incubated for 3 hours, while stirring and at 37° C., in the following solutions:
35 mM phosphate, pH 6.5, […] NaCl, pancreatin (2 mg) and bile salts (20 mM).
Before incubating, and after 1 hour and 3 hours, respectively, of incubation under the aforementioned conditions, the concentration of vitamin E in the solution is measured in comparison with the initial quantity of Tac.

[3] = Digestibility of vitamin E from faecal excretion in caecectomized cocks (Example 7); assay type: in vivo; conditions: treatment 1: Tac 40 mg, no emulsifier
Experimental: Two series of tests were carried out on caecectomized cocks. The first series comprised 32 cocks while the second comprised 51 cocks. They were fed, by “wet gavage”, with a feed which incorporated Tac (vitamin E acetate) or Tac combined, in different proportions, with one or two alimentary emulsifiers according to the invention. The Tac or the combined Tac was formulated in gelatin capsules, which were obtained by using a pipette to deposit a predetermined quantity of Tac or combined Tac in a capsule half shell and then closing the capsule with the other half shell. 48 hours after the ingestion of feed from a bowl, the faeces are collected and the excretion of the vitamin in this material is determined. To this end, the vitamin E is extracted with a vitamin E solvent, for example hexane, and the quantity extracted is then determined by HPLC chromatography. The proportion of vitamin E which has been digested is deduced from the proportion which has been excreted.

[4] = target: T1, cholesterol ester hydrolase (Homo sapiens, UniProt P19835); test: Tac hydrolysis in M40 micelle above CaCo-2 cells, 2 hours (Example 8.2); assay type: in vitro ADME; conditions: Tac 67 nmol/cm^2; Tac/emulsifier ratio 100/1; 2 hours at 37° C.
T1 sequence (P19835 21-753): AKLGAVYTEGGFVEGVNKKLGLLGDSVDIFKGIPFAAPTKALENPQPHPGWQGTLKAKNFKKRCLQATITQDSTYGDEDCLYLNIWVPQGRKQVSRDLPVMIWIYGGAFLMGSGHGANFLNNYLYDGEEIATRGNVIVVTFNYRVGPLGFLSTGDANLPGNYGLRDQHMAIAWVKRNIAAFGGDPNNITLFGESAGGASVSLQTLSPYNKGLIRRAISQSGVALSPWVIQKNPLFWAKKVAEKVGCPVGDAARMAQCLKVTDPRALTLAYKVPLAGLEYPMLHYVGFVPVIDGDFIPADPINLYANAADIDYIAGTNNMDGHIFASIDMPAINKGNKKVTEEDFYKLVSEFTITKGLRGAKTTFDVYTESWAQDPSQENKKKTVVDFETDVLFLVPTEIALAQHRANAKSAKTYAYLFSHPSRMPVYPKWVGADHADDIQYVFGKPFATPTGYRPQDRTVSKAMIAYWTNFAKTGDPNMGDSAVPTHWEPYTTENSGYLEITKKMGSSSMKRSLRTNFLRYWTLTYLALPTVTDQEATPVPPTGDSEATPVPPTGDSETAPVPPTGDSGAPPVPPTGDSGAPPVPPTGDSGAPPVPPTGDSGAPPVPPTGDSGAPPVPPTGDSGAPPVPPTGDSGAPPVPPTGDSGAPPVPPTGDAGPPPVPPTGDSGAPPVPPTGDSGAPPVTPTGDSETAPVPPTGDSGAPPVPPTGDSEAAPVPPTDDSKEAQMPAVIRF
Experimental: The conditions under which the tests are carried out are as follows: • Cell model: CaCo-2 cells • Area of the wells: 4.2 cm^2 • Quantity of Tac: 67 nmol/cm^2 • Solution employed: M40 micelle in accordance with Mathias et al.
Treatments: • A: Without emulsifier • B: With emulsifier (SMP+SMO mixture; ratio 1/1), Tac/emulsifier ratio 100/1
Period of incubation: 2 hours at 37° C.
Analyses: Analysis of Tac in the medium above the cells for the purpose of calculating the degree of hydrolysis.

[5] = Plasma vitamin E level of piglets after intraduodenal infusion (Example 9); assay type: in vivo; conditions: 800 IU single bolus intraduodenally; pooled samples 4-24 h postprandially
Excerpt: In order to exclude gastric influences or impacts of the carrier, the emulsifier of the invention was intraduodenally infused in liquid form (oil).
Three weaning piglets (initial BW 12 kg) were surgically fitted with a silicon catheter in the jugular vein as well as with a silicon cannula in the proximal duodenum according to the procedure described by Thaela et al. (1995).
A standard weaner diet without vitamin E supplementation was fed to the piglets. The animals were fed a daily feed allowance corresponding to 2.0×W^0.75, distributed twice in equal meals (08.00 h and 16.00). The animals were adapted for 7d to the basal diet. […] 2 treatments×3 piglets×2 repetitions (cross-over)
R1: 800 IU Vitamin E standard oil, infused as a single bolus intraduodenally
Blood samples were taken 4, 8, 12, 16, 20 and 24 h postprandially, plasma was obtained and samples were pooled. After the experiment, the animals were newly adapted to the basal diet for 7d before the 2nd repetition was done accordingly. The vitamin E content in the plasma was determined by HPLC according to the method by Castan et al. (2005). Data were analysed using the ANOVA procedure of Statview.

[6] = Plasma and liver vitamin E levels of broilers fed graded doses (Example 10); assay type: in vivo, Ross male broiler chicks; conditions: d35, diets fed d15 to d34
Excerpt: R3: Control+120 IU/kg standard Vit E
R4: Control+200 IU/kg standard Vit E
Three hundred Ross male broiler chicks were divided into 6 groups and housed in 6 pens. From d0 to d14, all animals were fed the same, vitamin E free, basal diet.
The animals received the pelleted experimental diets (R1-R6) ad libitum from d15 to d34. On d35, 15 broilers per treatment, which were closest to the mean body weight, were selected. Plasma samples were collected by intracardiac puncture. Birds were then slaughtered by pentobarbital injection. Livers were dissected, deep frozen in liquid nitrogen and immediately ground. The vitamin E levels in plasma or livers were determined by HPLC according to the method by Castan et al. (2005). Data were analysed using the ANOVA procedure of Statview.

[7] = Vitamin E levels in egg yolks of laying hens (Example 11); assay type: in vivo, ISA brown laying hens; conditions: supplementation level of 100 mg/kg feed
Experimental: Forty ISA brown laying hens, 23 weeks of age, were equally divided into 4 groups and individually housed in cages. The animals received the meal experimental diets (R1-R4) ad libitum for 21 days. The eggs layed on D20 to 21 were collected, weighed and stored at +4° C. The vitamin E levels in the egg yolk were determined by HPLC according to the method by […] et al. (2005). Data were analysed using the ANOVA procedure of Statview.

[8] = in vivo
Excerpt: (§1) R1: Basal diet+20 IU/kg standard Vit E (in the form of dl-α-tocopheryl acetate)
R2: Control+150 IU/kg standard Vit E
(§2) Thirty crossbred weanling piglets (8.0 kg live weight) were divided into three groups (R1, R2, R3), kept individually and distributed according to a completely randomized block design. The piglets were fed ad libitum for 14 days on a corn-wheat based diet (Table 11). The diet was supplemented with either 20 IU/kg (R1) or 150 IU/kg (R2) standard DL-α-tocopheryl acetate. […] On day 15 of the experiment the animals were slaughtered and their liver dissected, immediately frozen under liquid nitrogen and ground to powder. Muscle samples (muscularis glutaeus maximus) of about 9 cm2 were obtained from the left hind leg and frozen immediately. The vitamin E content of the samples was determined by HPLC (Castan et al. 2005) and data were statistically analysed using one-way ANOVA.

[9] = oral route, animals; cited from earlier work
[10] = Vitamin E levels in liver and muscle of piglets (Example 13); conditions: points at 20 IU/kg and 150 IU/kg
Excerpt: as §1
R2: Control+150 IU/kg standard Vit E
as §2

[11] = Example 3.2, emulsifier:Tac 1:6.9
[12] = Example 3.3, emulsifier:Tac 1:6.9

Absorption, Tac (CaCo-2; [11]): 1.68 nmol/cm^2
Absorption, Tol (CaCo-2; [11]): 1.77 nmol/cm^2
Absorption, Vitamin E (Tol + Tac in vitamin E equivalent) (CaCo-2; [11]): 3.45 nmol/cm^2
Absorption, Tac (CaCo-2; [12]): 2.31 nmol/cm^2
Absorption, Tol (CaCo-2; [12]): 1.29 nmol/cm^2
Absorption, Vitamin E (Tol + Tac in vitamin E equivalent) (CaCo-2; [12]): 3.60 nmol/cm^2
% of vitamin E released at pH 2.5 ([1]; 35 mM HCl/glycine, pH 2.5): 46.5%
% of vitamin E released at pH 6.5 ([1]; 35 mM phosphate, pH 6.5): 59.6%
concentration of vitamin E in the solution in comparison with the initial quantity of Tac ([2]; time 0 minutes (before incubating)): 1.21
concentration of vitamin E in the solution in comparison with the initial quantity of Tac ([2]; time 60 minutes): 1.30
concentration of vitamin E in the solution in comparison with the initial quantity of Tac ([2]; time 180 minutes): 5.25
Mean digestibility ([3]; first series, faeces at 48 hours): 24.8%
Mean digestibility ([3]; second series): 26.1%
Tac hydrolysis [4]: 9.7%
overall plasma vitamin E level [5]: 5.72 nmol/mL
slope of the curve of liver vitamin E level versus dietary dose ([6]; liver): 0.1896
slope of the curve of plasma vitamin E level versus dietary dose ([6]; plasma): 0.1211
total vitamin E content of the yolk [7]: 4.07 mg
increase of vitamin E content in liver as compared to piglets fed 20 IU/kg DL-α-tocopheryl acetate [8]: 51%
increase of vitamin E content in muscle as compared to piglets fed 20 IU/kg DL-α-tocopheryl acetate [8]: 35%
slope of the regression curve for vitamin E contents in livers [10]: 1.89
slope of the regression curve for vitamin E contents in muscle samples [10]: 0.89
Structure (SMILES): CC(=O)Oc1c(C)c(C)c2c(c1C)CC[C@@](C)(CCC[C@H](C)CCC[C@H](C)CCCC(C)C)O2 [Tac, d,l-α-tocopheryl acetate]
bioavailability [9]: ≤ 40%

Structure (SMILES): Cc1c(C)c2c(c(C)c1O)CC[C@@](C)(CCC[C@H](C)CCC[C@H](C)CCCC(C)C)O2 [vitamin E, d-α-tocopherol]
bioavailability [9]: ≤ 50%
